Assay results: PubChem BioAssay (NCI)
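Results reflect a 48-hour exposure of cells in 96-well plates to compound at five concentrations. TGI marks complete inhibition of growth.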

Key:
Assay in all cases: growth of human tumour cells (NCI), 48 h
[1] = system: LXFL 529 NSCLC
[2] = system: RXF 393 renal
[3] = system: A498 renal
[4] = system: OVCAR-5 ovarian
[5] = system: NCI-H23 lung
[6] = system: UACC-257 melanoma
[7] = system: CAKI-1 renal
[8] = system: KM12 colon
[9] = system: UACC-62 melanoma
[10] = system: SNB-75 CNS
[11] = system: HL-60(TB) leukemia
[12] = system: SNB-19 CNS
[13] = system: M19-MEL melanoma
[14] = system: SF-539 CNS
[15] = system: SR leukemia
[16] = system: SK-OV-3 ovarian
[17] = system: HCT-15 colon
[18] = system: SW-620 colon
[19] = system: UO-31 renal
[20] = system: SN12C renal
[21] = system: SNB-78 CNS
[22] = system: COLO 205 colon
[23] = system: SK-MEL-5 melanoma
[24] = system: EKVX NSCLC
[25] = system: A549 NSCLC
[26] = system: LOX IMVI melanoma
[27] = system: SF-295 CNS
[28] = system: KM20L2 colon
[29] = system: DLD-1 colon
[30] = system: DMS 273 small cell lung
[31] = system: TK-10 renal
[32] = system: M14 melanoma
[33] = system: NCI-H460 lung
[34] = system: CCRF-CEM leukemia
[35] = system: IGROV1 ovarian
[36] = system: HCC-2998 colon
[37] = system: OVCAR-8 ovarian
[38] = system: SK-MEL-28 melanoma
[39] = system: SF-268 CNS
[40] = system: NCI-H522 lung
[41] = system: RPMI-8226 leukemia
[42] = system: HOP-18 NSCLC
[43] = system: XF 498 CNS
[44] = system: HT29 colon
[45] = system: OVCAR-3 ovarian
[46] = system: NCI-H226 lung
[47] = system: OVCAR-4 ovarian
[48] = system: MOLT-4 leukemia
[49] = system: ACHN renal
[50] = system: HOP-92 NSCLC
[51] = system: SK-MEL-2 melanoma
[52] = system: U251 CNS
[53] = system: 786-0 renal
[54] = system: K-562 leukemia
[55] = system: MALME-3M melanoma
[56] = system: HOP-62 NSCLC
[57] = system: HCT-116 colon
[58] = system: DMS 114 small cell lung

Work on `COc1cccc(NC(=O)C(C)(C)C)c1SSc1c(NC(=O)C(C)(C)C)cccc1OC` yielded a TGI [1] of 29.9 µM, a TGI [2] of 35.3 µM and a TGI [3] of over 100 µM. The TGI [4] was 53.2 µM, the TGI [5] was over 100 µM and the TGI [6] was 51.4 µM. The TGI [7] was over 60.3 µM, the TGI [8] was over 95.5 µM and the TGI [9] was 45.4 µM. For the same compound, the TGI [10] was over 74.4 µM, the TGI [11] was over 73.1 µM and the TGI [12] was over 100 µM. The TGI [13] was over 100 µM, the TGI [14] was 45.5 µM and the TGI [15] was 55.3 µM. For the same compound, the TGI [16] was over 100 µM, the TGI [17] was 44.4 µM and the TGI [18] was 33.1 µM. It also gave a TGI [19] of over 88.9 µM, a TGI [20] of over 54.9 µM and a TGI [21] of 51.2 µM. For the same compound, the TGI [22] was 69.9 µM, the TGI [23] was over 100 µM and the TGI [24] was over 100 µM. It also gave a TGI [25] of over 100 µM, a TGI [26] of 30.4 µM and a TGI [27] of over 100 µM. The TGI [28] was over 100 µM, the TGI [29] was over 61.8 µM and the TGI [30] was over 100 µM. The TGI [31] was over 100 µM, the TGI [32] was 32.5 µM and the TGI [33] was over 100 µM. The TGI [34] was over 89.5 µM, the TGI [35] was over 100 µM and the TGI [36] was over 100 µM. The TGI [37] was 35.4 µM, the TGI [38] was over 57.9 µM and the TGI [39] was 32.7 µM. It also gave a TGI [40] of 27.2 µM, a TGI [41] of 51 µM and a TGI [42] of over 100 µM. It also gave a TGI [43] of 35.7 µM, a TGI [44] of over 65.1 µM and a TGI [45] of over 100 µM. The TGI [46] was over 93.6 µM, the TGI [47] was over 56.3 µM and the TGI [48] was over 70.6 µM. For the same compound, the TGI [49] was over 100 µM, the TGI [50] was over 86 µM and the TGI [51] was over 100 µM. For the same compound, the TGI [52] was 35.1 µM, the TGI [53] was 53.1 µM and the TGI [54] was over 82.5 µM. It also gave a TGI [55] of over 63.4 µM, a TGI [56] of over 100 µM and a TGI [57] of 42.8 µM.
For `Nc1c(C(=O)N/N=C/c2ccc(Cl)cc2)sc(=S)n1-c1ccccc1`, the TGI [1] was over 100 µM, the TGI [3] was over 100 µM and the TGI [4] was over 100 µM. For the same compound, the TGI [5] was over 100 µM, the TGI [6] was over 100 µM and the TGI [8] was over 100 µM. It also gave a TGI [9] of over 100 µM, a TGI [10] of over 100 µM and a TGI [11] of over 100 µM. It also gave a TGI [12] of over 100 µM, a TGI [13] of over 100 µM and a TGI [14] of over 100 µM. For the same compound, the TGI [16] was over 100 µM, the TGI [18] was over 100 µM and the TGI [19] was over 100 µM. It also gave a TGI [22] of over 100 µM, a TGI [23] of over 100 µM and a TGI [25] of over 100 µM. The TGI [27] was over 100 µM, the TGI [29] was over 100 µM and the TGI [31] was over 100 µM. The TGI [33] was over 100 µM, the TGI [34] was over 100 µM and the TGI [35] was over 100 µM. The TGI [36] was over 100 µM, the TGI [37] was over 100 µM and the TGI [38] was over 100 µM. The TGI [39] was over 100 µM, the TGI [40] was 91.9 µM and the TGI [42] was over 100 µM. For the same compound, the TGI [44] was over 100 µM, the TGI [45] was over 100 µM and the TGI [46] was over 100 µM. For the same compound, the TGI [49] was over 100 µM, the TGI [50] was over 100 µM and the TGI [54] was over 100 µM. For the same compound, the TGI [56] was over 100 µM and the TGI [57] was over 100 µM.
With `COC(=O)NC(=Nc1ccc(Oc2ccccc2)cc1NC=O)NC(=O)OC` the TGI [1] was over 100 µM, the TGI [3] was 1.08 µM and the TGI [4] was over 100 µM. It also gave a TGI [58] of 0.864 µM, a TGI [5] of over 100 µM and a TGI [6] of over 100 µM. For the same compound, the TGI [8] was over 100 µM, the TGI [9] was over 100 µM and the TGI [10] was over 100 µM. It also gave a TGI [11] of 0.707 µM, a TGI [12] of over 100 µM and a TGI [13] of over 100 µM. The TGI [14] was 2.49 µM, the TGI [16] was 0.526 µM and the TGI [18] was over 100 µM. For the same compound, the TGI [19] was 69.6 µM, the TGI [20] was over 100 µM and the TGI [22] was 0.618 µM. For the same compound, the TGI [23] was over 100 µM, the TGI [24] was over 100 µM and the TGI [25] was over 100 µM. For the same compound, the TGI [26] was over 100 µM, the TGI [27] was over 100 µM and the TGI [28] was 0.49 µM. For the same compound, the TGI [29] was over 100 µM, the TGI [31] was over 100 µM and the TGI [32] was over 100 µM. For the same compound, the TGI [34] was over 100 µM, the TGI [35] was over 100 µM and the TGI [36] was 5.27 µM. It also gave a TGI [37] of 8.57 µM, a TGI [39] of over 100 µM and a TGI [40] of 0.449 µM. It also gave a TGI [41] of over 100 µM, a TGI [42] of over 100 µM and a TGI [43] of 6.75 µM. For the same compound, the TGI [44] was 2.96 µM, the TGI [46] was 9.4 µM and the TGI [47] was over 100 µM. The TGI [48] was over 100 µM, the TGI [49] was over 100 µM and the TGI [50] was over 100 µM. For the same compound, the TGI [52] was 1.21 µM, the TGI [53] was over 100 µM and the TGI [54] was over 100 µM. The TGI [55] was over 100 µM, the TGI [56] was over 100 µM and the TGI [57] was 28 µM.
With `CCOC(=O)/C(C#N)=C1/Sc2c(ncn(/N=C/c3ccc(OC)cc3)c2=O)N1c1ccccc1` the TGI [1] was over 100 µM, the TGI [5] was over 100 µM and the TGI [6] was over 100 µM. For the same compound, the TGI [8] was over 100 µM, the TGI [9] was over 100 µM and the TGI [11] was over 100 µM. The TGI [12] was over 100 µM, the TGI [13] was over 100 µM and the TGI [14] was 34.8 µM. It also gave a TGI [15] of over 100 µM, a TGI [16] of over 100 µM and a TGI [18] of over 100 µM. For the same compound, the TGI [19] was over 100 µM, the TGI [22] was over 100 µM and the TGI [23] was over 100 µM. The TGI [25] was over 100 µM, the TGI [27] was 76.2 µM and the TGI [29] was over 100 µM. For the same compound, the TGI [31] was over 100 µM, the TGI [33] was over 100 µM and the TGI [34] was over 100 µM. The TGI [35] was over 100 µM, the TGI [36] was over 100 µM and the TGI [37] was over 100 µM. It also gave a TGI [38] of 81.5 µM, a TGI [39] of 77.7 µM and a TGI [40] of over 100 µM. It also gave a TGI [41] of over 100 µM, a TGI [44] of over 100 µM and a TGI [45] of over 100 µM. The TGI [46] was over 100 µM, the TGI [48] was over 100 µM and the TGI [49] was over 100 µM. The TGI [50] was 59 µM, the TGI [52] was over 100 µM and the TGI [54] was over 100 µM. The TGI [56] was 62.3 µM and the TGI [57] was over 100 µM.
`O=C(/C=C/c1ccccc1Cl)c1cccc2ccccc12` gave a TGI [1] of 11.9 µM, a TGI [2] of 28.6 µM and a TGI [3] of 27.5 µM. The TGI [4] was 26.7 µM, the TGI [58] was 15.2 µM and the TGI [5] was 28.1 µM. It also gave a TGI [6] of 32 µM, a TGI [7] of 25.4 µM and a TGI [8] of 16.8 µM. For the same compound, the TGI [9] was 28.6 µM, the TGI [10] was 18.3 µM and the TGI [11] was 37.7 µM. The TGI [12] was 16.8 µM, the TGI [13] was 23.5 µM and the TGI [14] was 23.3 µM. The TGI [15] was 9.16 µM, the TGI [16] was 34.8 µM and the TGI [17] was 17.2 µM. The TGI [18] was 4.06 µM, the TGI [19] was 21.3 µM and the TGI [20] was over 100 µM. It also gave a TGI [21] of 44.8 µM, a TGI [22] of 33.3 µM and a TGI [23] of 34 µM. For the same compound, the TGI [24] was 25.4 µM, the TGI [25] was 34 µM and the TGI [26] was 24.3 µM. For the same compound, the TGI [27] was 25.4 µM, the TGI [28] was 19.6 µM and the TGI [29] was 25.1 µM. The TGI [30] was 31.6 µM, the TGI [31] was 29.2 µM and the TGI [32] was 30.5 µM. For the same compound, the TGI [33] was 19.7 µM, the TGI [34] was 45.2 µM and the TGI [35] was 29.6 µM. It also gave a TGI [36] of 27.9 µM, a TGI [37] of 4.19 µM and a TGI [38] of 28.1 µM. The TGI [39] was 28.4 µM, the TGI [40] was 18.6 µM and the TGI [41] was 91 µM. For the same compound, the TGI [42] was 29.7 µM, the TGI [44] was 23.6 µM and the TGI [45] was 15 µM. It also gave a TGI [46] of over 100 µM, a TGI [47] of 16.6 µM and a TGI [48] of 5.59 µM. It also gave a TGI [49] of 30.4 µM, a TGI [50] of 34.9 µM and a TGI [51] of 35.5 µM. For the same compound, the TGI [52] was 8.45 µM, the TGI [53] was 17.9 µM and the TGI [54] was over 100 µM. For the same compound, the TGI [55] was 30.1 µM, the TGI [56] was 28.9 µM and the TGI [57] was 12.8 µM.
